Key:
Format in all cases: in vivo
Aphis gossypii [1] = assay: Aphis gossypii test (drench application) on genetically modified cotton; settings: 0.8 ppm
From the text: (§1) A synergistic effect in insecticides and acaricides is always present when the action of the active compound combinations exceeds the total of the actions of the active compounds when applied individually.
(§2) The expected action for a given combination of two active compounds can be calculated as follows, using the formula of S. R. Colby, Weeds 15 (1967), 20-22:
(§3) • X is the kill rate, expressed as % of the untreated control, when employing active compound A at an application rate of m g/ha or in a concentration of m ppm, • Y is the kill rate, expressed as % of the untreated control, when employing the transgenic seed and • E is the kill rate, expressed as % of the untreated control, when employing the active compound A at application rates of m g/ha or in a concentration of m ppm and the transgenic seed, then
(§4) If the actual insecticidal kill rate exceeds the calculated value, the action of the combination is superadditive, i.e. a synergistic effect is present. In this case, the actually observed kill rate must exceed the value calculated using the above formula for the expected kill rate (E).
(§5) Individual potted genetically modified cotton plants with Lepidoptera resistance and Glyphosate resistance are treated with the desired product against the cotton aphid (Aphis gossypii).
(§6) After the desired period of time, the kill in % is determined. 100% means that all the aphids have been killed; 0% means that none of the aphids have been killed.

Aphis gossypii [2] = assay: Aphis gossypii test (foliar application) on genetically modified cotton; settings: 20 ppm
From the text: as §1, §2, §3, §4, §5, §6

Spodoptera frugiperda = Spodoptera frugiperda test (foliar application) on genetically modified maize; settings: compound alone, 100 ppm
From the text: as §1, §2, §3, §4
Pots with in each case 5 genetically modified maize plants with Lepidoptera, Coleoptera and/or herbicide resistances are treated in 2 replications against the armyworm (Spodoptera frugiperda).
After the desired period of time, the kill in % is determined. […]

[3] = combined with cotton plant containing cry gene and Glyphosate resistance gene, expected kill

## CC(c1ccc(C(F)(F)F)nc1)S(C)(=O)=NC#N (stereo not shown) [compound I-8]
Aphis gossypii [1]; combined with cotton plant containing cry gene (Lepidoptera resistance) and Glyphosate resistance gene, after 2 d
  Kill in % after 2d, found: 90%
Aphis gossypii [1]; [3]
  Kill in % after 2d, calc. (Colby formula): 70%
Aphis gossypii [1]; active compound alone, after 2 d
  Kill in % after 2d: 70%
Aphis gossypii [2]; combined with cotton plant containing cry gene (Lepidoptera resistance) and Glyphosate resistance gene, after 1 d
  Kill in % after 1d, found: 85%
Aphis gossypii [2]; [3]
  Kill in % after 1d, calc. (Colby formula): 65%
Aphis gossypii [2]; active compound alone, after 1 d
  Kill in % after 1d: 65%
Spodoptera frugiperda
  Kill in % after 4d: 0%

— patent US9763451B2, “Method for improved use of the production potential of genetically modified plants” (Bayer Intellectual Property GmbH, priority 2008, dated 2017)
